Test results taken from ChEMBL document CHEMBL1124355, “Synthesis and biological activity of some partially modified retro-inverso analogues of cholecystokinin” (J Med Chem, 1989).
Non-standard residues stand in square brackets, D forms with d. Residues, ends and D or L forms follow the SMILES beside them. *: point of attachment. sY = N[C@@H](Cc1ccc(OS(=O)(=O)O)cc1)C(=O)O; Nle = CCCC[C@H](N)C(=O)O; Boc = CC(C)(C)OC(=O)*

Key:
Rattus norvegicus = species on record: Rattus norvegicus; assay: Ability of compound to stimulate in vitro amylase release from rat pancreatic acini; format: functional
[1] = Ability of compound to Inhibit the binding of [125I]BH-CCK-8 to Cholecystokinin receptor in isolated guinea pig brain membranes
Cholecystokinin receptor = target: T1, Cholecystokinin receptor (Rattus norvegicus, UniProt P30551+P30553); assay: Ability of compound to Inhibit the binding of [125I]BH-CCK-8 to Cholecystokinin receptor in isolated rat pancreatic acini; format: protein assay
T1 sequence (P30551 whole entry): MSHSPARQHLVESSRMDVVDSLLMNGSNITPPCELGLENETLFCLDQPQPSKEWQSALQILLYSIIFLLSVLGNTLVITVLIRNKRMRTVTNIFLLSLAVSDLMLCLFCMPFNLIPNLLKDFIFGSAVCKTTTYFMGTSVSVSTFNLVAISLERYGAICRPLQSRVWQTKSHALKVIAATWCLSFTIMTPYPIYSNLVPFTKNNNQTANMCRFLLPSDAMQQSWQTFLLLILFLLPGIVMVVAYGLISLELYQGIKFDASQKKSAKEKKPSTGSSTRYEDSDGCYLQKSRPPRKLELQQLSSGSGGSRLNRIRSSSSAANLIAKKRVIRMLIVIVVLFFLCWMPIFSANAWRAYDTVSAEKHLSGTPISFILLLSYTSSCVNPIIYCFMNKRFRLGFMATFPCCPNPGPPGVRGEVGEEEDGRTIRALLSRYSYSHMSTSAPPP
T1 sequence (P30553 whole entry): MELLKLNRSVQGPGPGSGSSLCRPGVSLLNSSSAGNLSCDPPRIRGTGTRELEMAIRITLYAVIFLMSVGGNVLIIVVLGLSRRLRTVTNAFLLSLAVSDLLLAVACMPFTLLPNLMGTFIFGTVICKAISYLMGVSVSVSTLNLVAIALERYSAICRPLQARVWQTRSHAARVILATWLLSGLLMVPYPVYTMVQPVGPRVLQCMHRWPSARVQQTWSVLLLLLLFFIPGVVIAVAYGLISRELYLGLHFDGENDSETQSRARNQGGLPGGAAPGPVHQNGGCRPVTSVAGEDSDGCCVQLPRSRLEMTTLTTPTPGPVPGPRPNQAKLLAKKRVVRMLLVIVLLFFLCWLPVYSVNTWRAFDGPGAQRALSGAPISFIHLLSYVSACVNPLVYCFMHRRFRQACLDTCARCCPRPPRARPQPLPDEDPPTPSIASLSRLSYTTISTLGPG

Row | Structure (SMILES) | EC50 (Rattus norvegicus) | IC50 [1] | IC50 (Cholecystokinin receptor)
1 | CCCC[C@H](NC(=O)[C@H](Cc1ccc(OS(=O)(=O)O)cc1)NC(=O)OC(C)(C)C)C(=O)NCNC(=O)[C@H](Cc1c[nH]c2ccccc12)NC(=O)[C@H](CCCC)NC(=O)[C@H](CC(=O)O)NC(=O)[C@@H](Cc1ccccc1)C(N)=O | 30 nM | 1000 nM | 20 nM
2 | CCCC[C@H](NC(=O)[C@H](Cc1ccc(OS(=O)(=O)O)cc1)NC(=O)OC(C)(C)C)C(=O)NCC(=O)N[C@@H](Cc1c[nH]c2ccccc12)C(=O)N[C@@H](CCCC)C(=O)N[C@@H](CC(=O)O)C(=O)N[C@@H](Cc1ccccc1)NC=O | 30 nM | 30 nM | 500 nM
3 | CCCC[C@H](NC(=O)[C@H](Cc1ccc(OS(=O)(=O)O)cc1)NC(=O)C(CC(=O)O)NC(=O)OC(C)(C)C)C(=O)NCC(=O)N[C@H](Cc1c[nH]c2ccccc12)C(=O)N[C@@H](CCCC)C(=O)N[C@H](CC(=O)O)NC(=O)CCc1ccccc1 (some centres not stated) | 130 nM | 40 nM | 100 nM

Continued by falling EC50 (Rattus norvegicus), values first:

Row | EC50 (Rattus norvegicus) | IC50 [1] | IC50 (Cholecystokinin receptor) | Structure (SMILES)
4 | 1700 nM | 100 nM | 4000 nM | CCCC[C@H](NC(=O)[C@H](Cc1ccc(OS(=O)(=O)O)cc1)NC(=O)OC(C)(C)C)C(=O)NCC(=O)N[C@H](Cc1c[nH]c2ccccc12)C(=O)N[C@@H](CCCC)C(=O)N[C@@H](CC(=O)O)C(=O)N[C@@H](Cc1ccccc1)NC=O
5 | 17 nM | 100 nM | 40 nM | CCCC[C@H](NC(=O)[C@H](Cc1ccc(OS(=O)(=O)O)cc1)NC(=O)OC(C)(C)C)C(=O)NCNC(=O)[C@H](Cc1c[nH]c2ccccc12)NC(=O)[C@H](CCCC)NC(=O)[C@H](CC(=O)O)NC(=O)CCc1ccccc1
6 | 6 nM | 2 nM | 500 nM | CCCC[C@@H](NC(=O)CC(=O)N[C@H](Cc1c[nH]c2ccccc12)C(=O)N[C@@H](CCCC)C(=O)N[C@H](CC(=O)O)C(=O)N[C@@H](Cc1ccccc1)C(N)=O)NC(=O)[C@H](Cc1ccc(OS(=O)(=O)O)cc1)NC(=O)C(CC(=O)O)NC(=O)OC(C)(C)C (some centres not stated)
7 | 0.7 nM | 10 nM | 100 nM | CCCC[C@H](NC(=O)[C@H](Cc1ccc(OS(=O)(=O)O)cc1)NC(=O)C(CC(=O)O)NC(=O)OC(C)(C)C)C(=O)NCC(=O)N[C@H](Cc1c[nH]c2ccccc12)C(=O)N[C@@H](CCCC)C(=O)N[C@H](CC(=O)O)NC(=O)[C@@H](Cc1ccccc1)C(N)=O (some centres not stated)
8 | 0.05 nM |  |  | CCCC[C@H](NC(=O)[C@H](Cc1ccc(OS(=O)(=O)O)cc1)NC(=O)OC(C)(C)C)C(=O)NCC(=O)N[C@@H](Cc1c[nH]c2ccccc12)C(=O)N[C@@H](CCCC)C(=O)N[C@@H](CC(=O)O)C(=O)N[C@@H](Cc1ccccc1)C(N)=O (Boc-[sY][Nle]GW[Nle]DF-NH2)
